Data on two molecules can be found in US7939267B2, “Detection of activation of endothelial cells as surrogate marker for angiogenesis” (Laboratory Corporation of America Holdings, priority 2004, dated 2011).

Where two headings read alike, the source gives them in different places.

The target in one assay is VEGFR2 (Homo sapiens, UniProt P35968). The method, then: (§1) In this example, VEGFR2-VEGFR2 homodimers and phosphorylation states were measured in cell lysates from several cell lines after treatment with various concentrations of vascular endothelial growth factor (VEGF). Measurements were made using three binding compounds and a cleaving probe as described below.
(§2) • 1. Serum-starve human umbilical vein endothelial cell line (HUVEC) culture overnight before use. • 2. Stimulate cell lines with VEGF in culture media for a set period of time (1, 3, 5, 9, 14 minutes) at 37° C. Exemplary doses of VEGF are 0, 2, 10, 25, 50, 250, 1000 ng/mL. • 3. Aspirate culture media, transfer onto ice, and add lysis buffer to lyse cells in situ. • 4. Scrape and transfer lysate to microfuge tube. Incubate on ice for 30 min. Microfuge at 14,000 rpm, 4° C., for 10 min. (Centrifugation is optional.) • 5. Collect supernatants as lysates and aliquot for storage at −80° C. until use. Assay:
(§3) Assay design: As illustrated diagrammatically in FIG. 7A, VEGFR2-VEGFR2 (R2-R2) homodimers (900) are quantified ratiometrically based on the binding of a cleaving probe (902), a first bind compound (904) which is specific for the same antigenic determinant on VEGFR2 as the cleaving probe, a second binding compound (906) which is specific for a different antigenic determinant on VEGFR2 from the cleaving probe, and a third binding compound (908) which is specific for phosphorylated tyrosine. A photosensitizer is attached to the cleaving probe (902) via an avidin-biotin linkage, and the first, second, and third binding compounds are labeled with molecular tags Pro10, Pro14, and Pro2, respectively.
(§4) The total assay volume was 40 ul. The lysate volume was adjusted to 30 ul with lysis buffer. The antibodies are diluted in lysis buffer up to 10 ul. Typically ˜5000 to 15000 cell-equivalent of lysates is used per reaction. The detection limit is ˜1000 cell-equivalent of lysates.
(§5) Procedure: Final concentrations of pre-mixed binding compounds (i.e. molecular tag- or biotin-antibody conjugates) in reaction: • Pro10_anti-VEGFR2: 0.25 ug/ml (VEGFR2 homodimer) • Pro14_anti-VEGFR2: 0.25 ug/ml (total VEGFR2) • Pro2_anti-phospho-Tyr: 0.0125 ug/ml (phosphorylation) • Biotin_anti-VEGFR2: 0.25 ug/ml • 1. To assay 96-well, add 10 ul antibody mix to 30 ul lysate and incubate for 1 hour at RT. • 2. Add 2 ul streptavidin-derivatized cleaving probe (final 2 ug/well) to assay well and incubate for 45 min. • 3. Add 150 ul of wash buffer to 96-well filter plate (Millipore MAGVN2250) and incubate for 1 hr at RT for blocking. • 4. Empty filter plate by vacuum suction.

The target of assay [1] is T1, VEGFR2-VEGFR2 homodimers (Homo sapiens, UniProt P35968). The method, then: as §1, §2, §3, §4, §5
A further assay deals with Erk. Particulars: HUVEC, increasing VEGF concentrations, 5 min stimulation time (FIG. 10A). The method, then:
as §2
(§6) The total assay volume was 40 ul. The lysate volume was adjusted to 30 ul with lysis buffer.

The test system of another assay is RSK. To be noted: HUVEC, increasing VEGF concentrations, 5 min stimulation time (FIG. 10B). The method, then: as §2, §6
The next assay concerns BAD. The assay can be described thus: BAD phosphorylation in HUVEC cell lysates, releasable molecular tag assay. It counts as cell-based, human. Particulars: increasing VEGF concentrations, 5 min stimulation time (FIG. 10C). The method, then:
• 1. […] Scrape and transfer lysate to microfuge tube. Incubate on ice for 30 min. […] (Centrifugation is optional.) • 5. […] Assay:
(§7) The total assay volume was 40 ul. […] The detection limit was ˜1000 cell-equivalent of lysates.
Pro52_anti-BAD (Total), 5 nM
Pro46_anti-Phospho-BAD (Phosphorylation), 5 nM
Pro53_anti-phospho-RSK (Phosphorylation), 5 nM • 1. […] Add 20 μl of Antibody mixture. • 3. […] Empty filter plate by vacuum suction. • 6. […] Repeat step 6 one more time. • 8. […] Illuminate the plate for 10 min. • 10.

The next assay concerns Akt. Particulars: HUVEC, increasing VEGF concentrations, data not shown. The text has this: Results of the assays are illustrated in FIGS. 10A, 10B and 10C.
In assay [2] the target is T1, VEGFR2-VEGFR2 homodimers. The method, then:
• 1. […] Scrape and transfer lysate to microfuge tube. Incubate on ice for 30 min. […]
This is another data set of the same source.

For the next assay, the target named is T2, Tie2-Tie2 homodimers (Homo sapiens, UniProt Q02763).
T2 construct: endogenous in cells; host or cells: HUVEC
Put plainly: Tie2 homodimerization in HUVEC cell lysates, releasable molecular tag assay. It counts as cell-based. The method, then:
(§8) • 1. […] Stimulate cell lines with 200 ng/mL Ang-1 in culture media for a set period of time (10, 30 minutes) at 37° C. • 3. […] Scrape and transfer lysate to microfuge tube. Incubate on ice for 30 min. […] (Centrifugation is optional.) • 5. […] Assay:
(§9) Assay design: As illustrated diagrammatically in FIG. 4C, Tie2-Tie2 homodimers are quantified ratiometrically based on the binding of cleaving probe (134) and binding compounds (130), and (132). A photosensitizer indicated by “PS” is attached to cleaving probe (134) via an avidin-biotin linkage, and binding compounds (130), and (132) are labeled with molecular tags Pro10, and Pro14, respectively.
as §7
Pro10_anti-Tie2: 0.25 ug/ml (Tie2 homodimer)
(§10) Pro14_anti-Tie2: 0.25 ug/ml (total Tie2)
(§11) Biotin_anti-Tie2: 0.25 ug/ml • 1. […] Empty filter plate by vacuum suction. […] Repeat one time. • 6. […] Repeat one time. • 7. […] Assay buffers are as previously described. Data Analysis: • 1. […] Report homodimerization of Tie2 as the corresponding RFU ratiometric to RFU from Pro14_anti-Tie2 from assay wells using biotin_anti-Tie2.

Another assay deals with T3, Tie2 (Homo sapiens, UniProt Q02763).
T3 construct: endogenous in cells; host or cells: HUVEC
The assay can be described thus: Total Tie2 receptor in HUVEC cell lysates, releasable molecular tag assay. It is filed as cell-based. To be noted: Ang-1 treatment (FIG. 8B). The method, then:
as §8, §9, §7, §10, §11

T1 sequence (P35968 20-1356): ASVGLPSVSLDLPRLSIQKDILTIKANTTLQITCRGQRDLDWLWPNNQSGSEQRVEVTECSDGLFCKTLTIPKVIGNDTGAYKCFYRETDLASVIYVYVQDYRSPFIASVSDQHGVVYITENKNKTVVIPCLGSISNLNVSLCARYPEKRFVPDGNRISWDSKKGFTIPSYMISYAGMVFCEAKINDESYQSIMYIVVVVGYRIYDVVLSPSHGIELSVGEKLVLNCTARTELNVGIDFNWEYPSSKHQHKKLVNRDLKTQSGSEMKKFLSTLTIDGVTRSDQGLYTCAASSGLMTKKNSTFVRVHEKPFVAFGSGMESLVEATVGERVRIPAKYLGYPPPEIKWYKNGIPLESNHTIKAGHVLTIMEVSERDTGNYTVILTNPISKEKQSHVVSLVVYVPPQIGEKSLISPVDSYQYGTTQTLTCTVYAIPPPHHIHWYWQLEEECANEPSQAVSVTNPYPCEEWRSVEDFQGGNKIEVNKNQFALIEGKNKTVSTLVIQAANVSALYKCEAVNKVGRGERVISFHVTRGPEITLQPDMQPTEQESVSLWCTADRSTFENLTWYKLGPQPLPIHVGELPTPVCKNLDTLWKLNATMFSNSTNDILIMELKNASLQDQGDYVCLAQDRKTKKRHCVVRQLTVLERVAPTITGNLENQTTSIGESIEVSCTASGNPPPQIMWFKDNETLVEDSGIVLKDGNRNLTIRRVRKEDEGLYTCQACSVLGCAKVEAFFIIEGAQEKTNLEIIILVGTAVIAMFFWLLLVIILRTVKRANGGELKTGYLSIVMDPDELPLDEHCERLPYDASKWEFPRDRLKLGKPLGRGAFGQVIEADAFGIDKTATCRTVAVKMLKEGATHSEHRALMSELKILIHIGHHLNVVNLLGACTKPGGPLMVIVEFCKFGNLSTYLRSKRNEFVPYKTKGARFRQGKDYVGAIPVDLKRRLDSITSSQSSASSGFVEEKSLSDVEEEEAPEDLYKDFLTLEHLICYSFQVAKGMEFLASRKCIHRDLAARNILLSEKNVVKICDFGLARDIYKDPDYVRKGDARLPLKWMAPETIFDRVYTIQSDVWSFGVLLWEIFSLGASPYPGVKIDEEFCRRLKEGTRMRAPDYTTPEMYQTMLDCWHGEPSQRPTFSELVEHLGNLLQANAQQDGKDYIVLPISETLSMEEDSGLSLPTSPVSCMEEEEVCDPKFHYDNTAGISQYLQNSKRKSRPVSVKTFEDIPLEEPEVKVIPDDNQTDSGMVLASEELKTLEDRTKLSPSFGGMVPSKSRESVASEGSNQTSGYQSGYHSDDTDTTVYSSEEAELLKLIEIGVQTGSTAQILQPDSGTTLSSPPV
T2 sequence (Q02763 23-1124): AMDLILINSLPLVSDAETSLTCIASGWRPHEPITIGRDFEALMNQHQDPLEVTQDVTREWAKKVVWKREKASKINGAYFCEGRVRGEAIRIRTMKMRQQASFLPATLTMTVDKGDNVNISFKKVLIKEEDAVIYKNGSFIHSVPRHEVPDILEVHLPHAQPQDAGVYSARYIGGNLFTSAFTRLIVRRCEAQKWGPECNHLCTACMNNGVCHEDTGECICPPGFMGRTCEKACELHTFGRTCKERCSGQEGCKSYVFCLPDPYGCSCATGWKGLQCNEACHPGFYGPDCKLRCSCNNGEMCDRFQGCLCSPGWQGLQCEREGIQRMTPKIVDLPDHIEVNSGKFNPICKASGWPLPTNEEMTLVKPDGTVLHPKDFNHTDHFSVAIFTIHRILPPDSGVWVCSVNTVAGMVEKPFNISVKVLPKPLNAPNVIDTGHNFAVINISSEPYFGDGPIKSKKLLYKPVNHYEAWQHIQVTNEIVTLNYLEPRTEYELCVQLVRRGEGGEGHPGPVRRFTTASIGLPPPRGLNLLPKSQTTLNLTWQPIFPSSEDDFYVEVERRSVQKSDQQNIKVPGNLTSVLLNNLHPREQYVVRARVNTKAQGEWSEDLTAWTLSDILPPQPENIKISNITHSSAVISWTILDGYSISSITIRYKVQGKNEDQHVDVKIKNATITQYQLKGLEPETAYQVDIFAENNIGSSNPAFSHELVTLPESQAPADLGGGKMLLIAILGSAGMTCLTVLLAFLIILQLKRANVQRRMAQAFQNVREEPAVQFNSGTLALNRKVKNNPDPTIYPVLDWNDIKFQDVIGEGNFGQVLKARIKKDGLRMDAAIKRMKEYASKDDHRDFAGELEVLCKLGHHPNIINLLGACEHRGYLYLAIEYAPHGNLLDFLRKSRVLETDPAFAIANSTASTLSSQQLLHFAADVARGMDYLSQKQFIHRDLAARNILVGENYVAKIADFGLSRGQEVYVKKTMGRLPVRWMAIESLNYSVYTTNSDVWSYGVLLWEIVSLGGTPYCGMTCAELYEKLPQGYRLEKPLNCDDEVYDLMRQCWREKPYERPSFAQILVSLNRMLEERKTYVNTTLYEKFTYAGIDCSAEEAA
VEGFR2, sequence (P35968 20-1356): as the sequence (P35968 20-1356) above
T3 sequence (Q02763 23-1124): as the sequence (Q02763 23-1124) above

For VEGF, on VEGFR2, the VEGFR2 phosphorylation result is recorded as “increases on HUVEC cells with increasing concentrations of VEGF”; the “VEGFR2 phosphorylation over time” value was “transient, peaking at 1 minute of stimulation and decreasing to background level by 5 minutes”. On VEGFR2-VEGFR2 homodimers [1], the “VEGFR2-VEGFR2 homodimer formation over time” value is “form by 1 minute of VEGF stimulation, and remain after up to 14 minutes of stimulation”; the VEGFR2 homodimerization result is recorded as “large increase in VEGFR2 homodimerization”; the “quantity of VEGFR2-VEGFR2 homodimers” value is “increases on HUVEC cells with increasing concentrations of VEGF”. In the assay with Erk, the “phosphorylation state of Erk” value is given as “increases on HUVEC cells with increasing concentrations of VEGF”. The “phosphorylation state of RSK” value with RSK is reported as “increases on HUVEC cells with increasing concentrations of VEGF”. The “phosphorylation state of BAD” value with BAD is “increases on HUVEC cells with increasing concentrations of VEGF”. The “phosphorylation of Akt” value with Akt is “increased on HUVEC cells with increasing concentrations of VEGF”. Besides, the VEGFR2 homodimerization entry on VEGFR2-VEGFR2 homodimers [2] is reported as “large increase in VEGFR2 homodimerization”.

B1: Ang-1: angiopoietin-1, major physiological ligand for Tie-2, used to stimulate HUVEC cells (protein, UniProt Q15389 16-498, looked up)
Angiopoietin-1: HIGCSNQRRSPENSGRRYNRIQHGQCAYTFILPEHDGNCRESTTDQYNTNALQRDAPHVEPDFSSQKLQHLEHVMENYTQWLQKLENYIVENMKSEMAQIQQNAVQNHTATMLEIGTSLLSQTAEQTRKLTDVETQVLNQTSRLEIQLLENSLSTYKLEKQLLQQTNEILKIHEKNSLLEHKILEMEGKHKEELDTLKEEKENLQGLVTRQTYIIQELEKQLNRATTNNSVLQKQQLELMDTVHNLVNLCTKEGVLLKGGKREEEKPFRDCADVYQAGFNKSGIYTIYINNMPEPKKVFCNMDVNGGGWTVIQHREDGSLDFQRGWKEYKMGFGNPSGEYWLGNEFIFAITSQRQYMLRIELMDWEGNRAYSQYDRFHIGNEKQNYRLYLKGHTGTAGKQSSLILHGADFSTKDADNDNCMCKCALMLTGGWWFDACGPSNLNGMFYTAGQNHGKLNGIKWHYFKGPSYSLRSTTMMIRPLDF
B1: the “quantity of Tie2-Tie2 homodimers” value in the assay with Tie2-Tie2 homodimers (200 ng/mL Ang-1, 10 min of stimulation (FIG. 8A)) is given as “increase on HUVEC cells”; with Tie2-Tie2 homodimers (200 ng/mL Ang-1, 30 min stimulation (FIG. 8A)), “decreases from that level”. Also, the “total amount of Tie2 receptor” value in the assay with Tie2 was “does not change with Ang-1 treatment”.
